Mutagenic call data for five molecules are collected here from PubChem BioAssay AID1259407 (Chemical Carcinogenesis Research Information System (CCRIS), 2018).

In the data set the test system is CCRIS mutagenicity, Ames/micronucleus/aberration tests. The experiment in a line: CCRIS mutagenicity studies.
Setting [1] is: Test System: AMES SALMONELLA TYPHIMURIUM, Strain/Indicator: TA98, Metabolic Activation: NONE, Method: PREINCUBATION
Where [2] appears, read: Test System: AMES SALMONELLA TYPHIMURIUM, Strain/Indicator: TA98, Metabolic Activation: NONE, Method: STANDARD PLATE.
Setting [3] is: Test System: AMES SALMONELLA TYPHIMURIUM, Strain/Indicator: TA100, Metabolic Activation: NONE, Method: PREINCUBATION
Where [4] appears, read: Test System: AMES SALMONELLA TYPHIMURIUM, Strain/Indicator: TA100, Metabolic Activation: NONE, Method: STANDARD PLATE.
Where [5] appears, read: Test System: AMES SALMONELLA TYPHIMURIUM, Strain/Indicator: TA1535, Metabolic Activation: NONE, Method: PREINCUBATION
Setting [6] is: Test System: AMES SALMONELLA TYPHIMURIUM, Strain/Indicator: TA1537, Metabolic Activation: NONE, Method: PREINCUBATION
Where [7] appears, read: Test System: AMES SALMONELLA TYPHIMURIUM, Strain/Indicator: TA98, Metabolic Activation: RAT, LIVER, S-9, AROCLOR 1254, Method: STANDARD PLATE.
[8] abbreviates: Test System: AMES SALMONELLA TYPHIMURIUM, Strain/Indicator: TA100, Metabolic Activation: RAT, LIVER, S-9, AROCLOR 1254, Method: STANDARD PLATE.
The mark [9] stands for this setting: Test System: AMES SALMONELLA TYPHIMURIUM, Strain/Indicator: TA1535, Metabolic Activation: NONE, Method: STANDARD PLATE.
[10] abbreviates: Test System: AMES SALMONELLA TYPHIMURIUM, Strain/Indicator: TA1535, Metabolic Activation: RAT, LIVER, S-9, AROCLOR 1254, Method: STANDARD PLATE.
The mark [11] stands for this setting: Test System: AMES SALMONELLA TYPHIMURIUM, Strain/Indicator: TA1537, Metabolic Activation: NONE, Method: STANDARD PLATE.
Setting [12] is: Test System: AMES SALMONELLA TYPHIMURIUM, Strain/Indicator: TA1537, Metabolic Activation: RAT, LIVER, S-9, AROCLOR 1254, Method: STANDARD PLATE.

Calls of active or inactive are those of the source. How the calls were made is not given here.

Regarding `Cc1cc(O)c(C(C)(C)C)cc1Sc1cc(C(C)(C)C)c(O)cc1C`, the mutagenic call is “inactive; negative” (Test System: AMES SALMONELLA TYPHIMURIUM, Strain/Indicator: TA98, Metabolic Activation: HAMSTER, LIVER, S-9, AROCLOR 1254 (10%), Method: PREINCUBATION); “inactive; negative” under setting [1]; “inactive; negative” under setting [2]; “inactive; negative” (Test System: AMES SALMONELLA TYPHIMURIUM, Strain/Indicator: TA98, Metabolic Activation: RAT, LIVER, S-9, AROCLOR 1254 (10%), Method: PREINCUBATION); “inactive; negative” (Test System: AMES SALMONELLA TYPHIMURIUM, Strain/Indicator: TA98, Metabolic Activation: S-9, Method: STANDARD PLATE); “inactive; negative” (Test System: AMES SALMONELLA TYPHIMURIUM, Strain/Indicator: TA100, Metabolic Activation: HAMSTER, LIVER, S-9, AROCLOR 1254 (10%), Method: PREINCUBATION). The mutagenic call runs as follows: under setting [3], “inactive; negative”; under setting [4], “inactive; negative”; (Test System: AMES SALMONELLA TYPHIMURIUM, Strain/Indicator: TA100, Metabolic Activation: RAT, LIVER, S-9, AROCLOR 1254 (10%), Method: PREINCUBATION) “inactive; negative”; (Test System: AMES SALMONELLA TYPHIMURIUM, Strain/Indicator: TA100, Metabolic Activation: S-9, Method: STANDARD PLATE) “inactive; negative”; (Test System: AMES SALMONELLA TYPHIMURIUM, Strain/Indicator: TA1535, Metabolic Activation: HAMSTER, LIVER, S-9, AROCLOR 1254 (10%), Method: PREINCUBATION) “inactive; negative”; under setting [5], “inactive; negative”. Moreover, the mutagenic call (Test System: AMES SALMONELLA TYPHIMURIUM, Strain/Indicator: TA1535, Metabolic Activation: RAT, LIVER, S-9, AROCLOR 1254 (10%), Method: PREINCUBATION) is “inactive; negative”; the mutagenic call (Test System: AMES SALMONELLA TYPHIMURIUM, Strain/Indicator: TA1537, Metabolic Activation: HAMSTER, LIVER, S-9, AROCLOR 1254 (10%), Method: PREINCUBATION) was “inactive; negative”; the mutagenic call under setting [6] was “inactive; negative”; the mutagenic call (Test System: AMES SALMONELLA TYPHIMURIUM, Strain/Indicator: TA1537, Metabolic Activation: RAT, LIVER, S-9, AROCLOR 1254 (10%), Method: PREINCUBATION) is “inactive; negative”.

Take `OCCOCCOCCO`: the mutagenic call under setting [1] is “inactive; negative”; the mutagenic call (Test System: AMES SALMONELLA TYPHIMURIUM, Strain/Indicator: TA98, Metabolic Activation: RAT LIVER S-9, PHENOBARBITAL AND BETA-NAPHTHOFLAVONE, Method: PREINCUBATION) is “inactive; negative”; the mutagenic call under setting [3] was “inactive; negative”; the mutagenic call (Test System: AMES SALMONELLA TYPHIMURIUM, Strain/Indicator: TA100, Metabolic Activation: RAT LIVER S-9, PHENOBARBITAL AND BETA-NAPHTHOFLAVONE, Method: PREINCUBATION) was “inactive; negative”; the mutagenic call under setting [5] is “inactive; negative”; the mutagenic call (Test System: AMES SALMONELLA TYPHIMURIUM, Strain/Indicator: TA1535, Metabolic Activation: RAT LIVER S-9, PHENOBARBITAL AND BETA-NAPHTHOFLAVONE, Method: PREINCUBATION) was “inactive; negative”. The mutagenic call reads like this: under setting [6], “inactive; negative”; (Test System: AMES SALMONELLA TYPHIMURIUM, Strain/Indicator: TA1537, Metabolic Activation: RAT LIVER S-9, PHENOBARBITAL AND BETA-NAPHTHOFLAVONE, Method: PREINCUBATION) “inactive; negative”; (Test System: AMES SALMONELLA TYPHIMURIUM, Strain/Indicator: TA1538, Metabolic Activation: NONE, Method: PREINCUBATION) “inactive; negative”; (Test System: AMES SALMONELLA TYPHIMURIUM, Strain/Indicator: TA1538, Metabolic Activation: RAT LIVER S-9, PHENOBARBITAL AND BETA-NAPHTHOFLAVONE, Method: PREINCUBATION) “inactive; negative”; (Test System: E.COLI, Strain/Indicator: WP2UVRA, Metabolic Activation: NONE, Method: PREINCUBATION) “inactive; negative”; (Test System: E.COLI, Strain/Indicator: WP2UVRA, Metabolic Activation: RAT LIVER S-9, PHENOBARBITAL AND BETA-NAPHTHOFLAVONE, Method: PREINCUBATION) “inactive; negative”.

With `O=S(=O)(Oc1ccc(Cl)c(Cl)c1)c1cccc2cccnc12`, the mutagenic call runs as follows: under setting [2], “inactive; negative”; under setting [7], “active; positive”; under setting [4], “inactive; negative”; under setting [8], “active; positive”; under setting [9], “inactive; negative”; under setting [10], “inactive; negative”. The mutagenic call by setting is: under setting [11], “inactive; negative”; under setting [12], “inactive; negative”.

With `O=c1c(Cl)c(Cl)cnn1S(=O)(=O)c1ccc(Cl)cc1`, the mutagenic call was “inactive; negative” under setting [2]; “inactive; negative” under setting [7]; “inactive; negative” under setting [4]; “inactive; negative” under setting [8]; “inactive; negative” under setting [9]; “inactive; negative” under setting [10]. The mutagenic call under setting [11] is “inactive; negative” and the mutagenic call under setting [12] was “inactive; negative”.

In the case of `O=[N+]([O-])c1ccc(-c2nc3sccn3c2[N+](=O)[O-])cc1`, the mutagenic call by setting is: under setting [2], “active; positive”; under setting [4], “active; positive”; under setting [9], “inactive; negative”; under setting [11], “active; positive”; (Test System: AMES SALMONELLA TYPHIMURIUM, Strain/Indicator: TA1538, Metabolic Activation: NONE, Method: STANDARD PLATE) “active; positive”.
